Experimental data reported in patent US20070203098A1, “Pten Inhibitors” (priority 2004, published 2007).
Several values for one entry are separate records, joined by “and”; a condition that tells them apart may be missing. Equal entries are not always repeated. Where two headings read alike, the source gives them in different places. Marks after values point to notes of the source that are not given here.

What was measured:
mouse aortic ring = experiment: In Vitro Aortic Ring Angiogenesis Assay; format: cell-based; conditions: 120 h; for activity at 40 µM: 5 days
PTEN [1] = molecular target: T1, PTEN (Homo sapiens, UniProt P60484); experiment: PTEN Inhibition Assay: IC50 Determinations; format: biochemical
PTP1B = molecular target: T2, PTP1B (Homo sapiens, UniProt P18031); experiment: PTP1B Inhibition Assay: IC50 Determinations; format: biochemical
T2 sequence (P18031 1-435): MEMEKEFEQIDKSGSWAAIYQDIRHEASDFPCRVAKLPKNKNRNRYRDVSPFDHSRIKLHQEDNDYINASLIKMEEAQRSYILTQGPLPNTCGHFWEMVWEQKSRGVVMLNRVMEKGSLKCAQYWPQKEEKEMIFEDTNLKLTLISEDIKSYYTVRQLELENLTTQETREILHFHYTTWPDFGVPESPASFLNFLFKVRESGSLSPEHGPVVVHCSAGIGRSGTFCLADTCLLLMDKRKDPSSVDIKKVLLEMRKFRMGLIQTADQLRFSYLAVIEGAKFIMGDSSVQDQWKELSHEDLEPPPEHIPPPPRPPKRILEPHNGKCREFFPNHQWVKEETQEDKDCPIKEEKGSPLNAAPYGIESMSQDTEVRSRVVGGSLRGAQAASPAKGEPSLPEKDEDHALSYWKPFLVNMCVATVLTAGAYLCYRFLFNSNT

[2] = tested on: human brain endothelial cells (HBEC); experiment: MTT Assay for Determining Toxicity, HBEC; format: cell-based; conditions: Endothelial cell, read-out: Viability IC50 HBEC
[3] = tested on: human non-small cell lung cancer cells (H1299); experiment: MTT Assay for Determining Toxicity, H1299; format: cell-based; conditions: read-out: Viability IC50 H1299
[4] = tested on: human prostate cancer cells (PC-3); experiment: MTT Assay for Determining Toxicity, PC-3; format: cell-based; conditions: read-out: Viability IC50 PC-3
MEF PTEN wt = experiment: Migration Assay, MEF PTEN wt; format: cell-based, mouse
MEF PTEN null = experiment: Migration Assay, MEF PTEN null; format: cell-based, mouse
[5] = tested on: HBEC (Human Brain Endothelial Cells); experiment: Wound Healing Assay; format: cell-based
GST-PTEN fusion protein = GST-PTEN fusion protein (Homo sapiens, UniProt P60484); experiment: Immobilized PTEN; format: biochemical; conditions: PLV substrate
Procedure: In the PTEN inhibition assay, to exclude the possibility that PTEN inhibitor candidates interact with the unilameller PIP3 lipid vesicle (PLV) to block PTEN and artificially mimic PTEN inhibition, PTEN was bound to a solid support and treated with inhibitor, the inhibitor washed away and then the capability of the bound PTEN to dephosphorylate PLV was determined. […] The gel was centrifuged, washed 3 times and centrifuged again. […] Then a 100 ul portion of malachite green buffer (Upstate, Charlottesville, Va.) was added to develop the color in the dark at room temperature. […] Optical density measurements were converted to nanomoles of phosphate detected using a phosphate-malachite green standard calibration curve.

PTEN [6] = molecular target: T1, PTEN; experiment: PTEN Inhibition Assay: General Screening; format: biochemical
U87MG PTEN wt = format: cell-based
U87MG PTEN null = format: cell-based
RAC1-GTP = format: cell-based, mouse
[7] = read-out: Branch (% of control)
[8] = MTT, serum-free, 2 hours with compound
[9] = NCI-H1299, MTT, serum-free, 2 hours with compound
[10] = relative to no treatment control
[11] = read-out: % Inhibition @ 250 uM
[12] = 250 uM, Table 27 isatins, read-out: % Inhibition @250 uM

T1 sequence (P60484 whole entry, species assumed): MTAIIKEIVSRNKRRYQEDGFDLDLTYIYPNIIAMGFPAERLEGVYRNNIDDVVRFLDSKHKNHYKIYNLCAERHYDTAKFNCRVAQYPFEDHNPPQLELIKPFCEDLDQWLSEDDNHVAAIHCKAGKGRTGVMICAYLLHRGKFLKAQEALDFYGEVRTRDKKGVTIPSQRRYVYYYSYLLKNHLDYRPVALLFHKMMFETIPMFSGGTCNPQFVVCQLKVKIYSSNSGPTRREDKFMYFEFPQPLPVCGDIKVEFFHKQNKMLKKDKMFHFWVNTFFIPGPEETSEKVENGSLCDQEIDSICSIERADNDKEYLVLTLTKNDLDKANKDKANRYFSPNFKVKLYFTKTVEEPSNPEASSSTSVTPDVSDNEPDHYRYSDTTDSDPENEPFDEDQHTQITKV
GST-PTEN fusion protein, sequence (P60484 whole entry, the tested form may be a part): as the sequence (P60484 whole entry, species assumed) above

## O=c1cc(N2CCOCC2)oc2c(-c3ccccc3)cccc12 [LY294002, reference compound]
Mouse aortic ring; [7]
  activity at 40 µM: 0 to 0.8%
Mouse aortic ring; read-out: Stem (% of control)
  activity at 40 µM: 0 to 2%

## O=C1C(=O)c2cccnc2-c2ncccc21 [SF1720-000, 1,10-phenanthroline-5,6-dione]
PTEN [1]; Table 1, read-out: PTEN Inhibition IC50
  IC50: 5 µM
PTEN [1]; Table 25, read-out: PTEN IC50
  IC50: 5 µM
PTEN [1]; Table 29, read-out: PTEN IC50
  IC50: 5 µM
PTEN [1]; ratio of IC50's
  selective inhibition for PTEN over PTP1B: more than 50 fold
PTP1B; Table 29, read-out: PTP1B IC50
  IC50: > 250 µM
[2]; [8]
  IC50: 1 µM
[3]; [9]
  IC50: < 1 µM
[4]; [8]
  IC50: 7 µM
MEF PTEN wt; 125 uM, Table 4
  migration number, Average: 18.20
MEF PTEN wt; 250 uM, Table 4
  migration number, Average: 11.90
MEF PTEN null; 125 uM, Table 4
  migration number, Average: 36.50
MEF PTEN null; 250 uM, Table 4
  migration number, Average: 37.30
[5]; 10 nM, 2 hrs
  distance the cells have grown out: 0.03* millimeters
[5]; 10 nM, 4 hrs
  distance the cells have grown out: 0.04667 millimeters
[5]; 10 nM, 6 hrs
  distance the cells have grown out: 0.08* millimeters
[5]; 10 nM, 24 hrs
  distance the cells have grown out: 0.155* millimeters
[5]; 50 nM, 2 hrs
  distance the cells have grown out: 0.03667 millimeters
[5]; 50 nM, 4 hrs
  distance the cells have grown out: 0.04667 millimeters
[5]; 50 nM, 6 hrs
  distance the cells have grown out: 0.05667* millimeters
[5]; 50 nM, 24 hrs
  distance the cells have grown out: 0.1583* millimeters
[5]; 0.111 uM, 2 hrs
  distance the wound edge had moved forward: 0.04333 mm
[5]; 0.111 uM, 4 hrs
  distance the wound edge had moved forward: 0.05667 mm
[5]; 0.111 uM, 6 hrs
  distance the wound edge had moved forward: 0.06833 mm
[5]; 250 nM, 2 hrs
  distance the cells have grown out: 0.025 millimeters
[5]; 250 nM, 4 hrs
  distance the cells have grown out: 0.03667 millimeters
[5]; 250 nM, 6 hrs
  distance the cells have grown out: 0.05167* millimeters
[5]; 250 nM, 24 hrs
  distance the cells have grown out: 0.1117* millimeters
[5]; 0.333 uM, 2 hrs
  distance the wound edge had moved forward: 0.05 mm
[5]; 0.333 uM, 4 hrs
  distance the wound edge had moved forward: 0.085 mm
[5]; 0.333 uM, 6 hrs
  distance the wound edge had moved forward: 0.1333 mm
[5]; [10]
  HBEC migration across the wound, in words: migrate faster
GST-PTEN fusion protein; PTEN in solution
  inorganic phosphate detected, oriPTEN + 1720, Average: 0.1028 nmol
GST-PTEN fusion protein; PTEN in solution, single determinations
  inorganic phosphate detected, oriPTEN + 1720: 0.0995 nmol and 0.106 nmol
GST-PTEN fusion protein; immobilized PTEN pretreated 1 hour, washed
  inorganic phosphate detected, PTEN gel/1720 bound, Average: 0.1142 nmol
GST-PTEN fusion protein; immobilized PTEN pretreated 1 hour, washed, single determinations
  inorganic phosphate detected, PTEN gel/1720 bound: 0.1191 nmol and 0.1093 nmol

## CC(C)(C)C(=O)Nc1ccc2c(c1)C(=O)C(=O)c1ccccc1-2 [SF1670-000, N-(9,10-Dioxo-9,10-dihydro-phenanthren-2-yl)-2,2-dimethyl-propionamide]
PTEN [6]; [11]
  inhibition at 250 µM: 100%
PTEN [1]
  IC50: 2 µM
PTP1B
  IC50: 17 µM
[2]; 2 h
  IC50: 5 µM
[3]; NCI-H1299, 2 h
  IC50: 10 µM
[4]; 2 h
  IC50: 44 µM
Mouse aortic ring; [7]
  activity at 5 µM: 126 to 166%
Mouse aortic ring; read-out: Stem (% of control)
  activity at 5 µM: 107 to 196%
MEF PTEN wt
  migration number, Average: 16.00 and 22.60 and 31.20 and 28.70 and 26.80
MEF PTEN null
  migration number, Average: 47.20 and 49.30 and 49.90 and 47.60 and 45.90
U87MG PTEN wt
  concentration of maximal induction of migration: 30 nM
U87MG PTEN null
  migration number, Average: 60.90 and 57.20
[5]
  HBEC migration across the wound, in words: migrate faster
RAC1-GTP
  integrin induced activation of RAC to its GTP bound state: augmented integrin induced activation of RAC

## Cc1ccc(C(=O)Nc2ccc3c(c2)C(=O)C(=O)c2ccccc2-3)cc1 [SF1779-000]
PTEN [6]; [11]
  inhibition at 250 µM: 99.8%
PTEN [1]
  IC50: 0.342 µM
PTP1B
  IC50: 0.233 µM
Mouse aortic ring; [7]
  activity at 5 µM: 112 to 138%
Mouse aortic ring; read-out: Stem (% of control)
  activity at 5 µM: 92 to 125%
MEF PTEN wt
  migration number, Average: 20.60 and 18.00
MEF PTEN null
  migration number, Average: 47.30 and 43.50

## O=C(O)CCC(=O)Nc1ccc2c(c1)C(=O)C(=O)c1ccccc1-2 [SF1804-000]
PTEN [6]; [11]
  inhibition at 250 µM: 98.6%
PTEN [1]
  IC50: 54.7 µM
PTP1B
  IC50: 1 to 10 µM

## O=C1Nc2ccc([N+](=O)[O-])cc2C1=O [SF1770-000, 5-nitroindoline-2,3-dione]
PTEN [6]; [12]
  inhibition at 250 µM: 99.4%
PTEN [1]; Table 29, read-out: PTEN IC50
  IC50: 2.2 µM
PTP1B; Table 29, read-out: PTP1B IC50
  IC50: 16.3 µM
[2]; [8]
  IC50: > 1000 µM
[3]; [9]
  IC50: 695 µM
[4]; [8]
  IC50: > 1000 µM
MEF PTEN wt; 125 uM, Table 4
  migration number, Average: 22.90
MEF PTEN wt; 250 uM, Table 4
  migration number, Average: 22.40
MEF PTEN null; 125 uM, Table 4
  migration number, Average: 42.30
MEF PTEN null; 250 uM, Table 4
  migration number, Average: 41.50
[5]; 10 nM, 2 hrs
  distance the cells have grown out: 0.02667* millimeters
[5]; 10 nM, 4 hrs
  distance the cells have grown out: 0.045* millimeters
[5]; 10 nM, 6 hrs
  distance the cells have grown out: 0.065* millimeters
[5]; 10 nM, 24 hrs
  distance the cells have grown out: 0.1483* millimeters
[5]; 50 nM, 2 hrs
  distance the cells have grown out: 0.05 millimeters
[5]; 50 nM, 4 hrs
  distance the cells have grown out: 0.06 millimeters
[5]; 50 nM, 6 hrs
  distance the cells have grown out: 0.075 millimeters
[5]; 50 nM, 24 hrs
  distance the cells have grown out: 0.2233* millimeters
[5]; 250 nM, 2 hrs
  distance the cells have grown out: 0.04 millimeters
[5]; 250 nM, 4 hrs
  distance the cells have grown out: 0.05167 millimeters
[5]; 250 nM, 6 hrs
  distance the cells have grown out: 0.06667 millimeters
[5]; 250 nM, 24 hrs
  distance the cells have grown out: 0.2017* millimeters
[5]; 1000 nM, 2 hrs
  distance the cells have grown out: 0.04 millimeters
[5]; 1000 nM, 4 hrs
  distance the cells have grown out: 0.06167 millimeters
[5]; 1000 nM, 6 hrs
  distance the cells have grown out: 0.07667 millimeters
[5]; 1000 nM, 24 hrs
  distance the cells have grown out: 0.2417 millimeters
[5]; [10]
  HBEC migration across the wound, in words: migrate faster

## O=C(CCCc1ccccc1)Nc1ccc2c(c1)C(=O)C(=O)c1ccccc1-2 [SF1785-000]
PTEN [6]; [11]
  inhibition at 250 µM: 97.9%
PTEN [1]
  IC50: 5 µM
PTP1B
  IC50: 1 to 10 µM

## Cc1ccc(C(=O)Nc2ccc3c(c2)C(=O)C(=O)N3)cc1 [SF1778-000]
PTEN [6]; [12]
  inhibition at 250 µM: 98.5%
PTEN [1]; Table 29, read-out: PTEN IC50
  IC50: 22.1 µM
PTP1B; Table 29, read-out: PTP1B IC50
  IC50: 11 µM

## CC(C)(C)c1ccc(S(=O)(=O)Nc2ccc3c(c2)C(=O)C(=O)c2ccccc2-3)cc1 [SF1780-000]
PTEN [6]; [11]
  inhibition at 250 µM: 98%
PTEN [1]; Table 29, read-out: PTEN IC50
  IC50: 0.269 µM
PTP1B; Table 29, read-out: PTP1B IC50
  IC50: 0.12 µM

## CCN(N=O)c1ccc(O)c(O)c1 [SF1681-000, 3,4-Dephostatin, Ethyl-, reference compound]
PTEN [6]; read-out: % Inhibition at 250 uM
  inhibition at 250 µM: 82.4%
PTEN [1]
  IC50: 50 µM
PTP1B
  IC50: 50 µM
